Data reported in patent US20220281848A1, “PYRAZOLE-SUBSTITUTED PYRROLIDINONES AS HERBICIDES” (FMC Corporation, priority 2019, published 2022).

Test system: plants
Experiment: Test D pre-emergence, other plants of Tables D1 and D3
Type: in vivo
Conditions: pre-emergence, 100=total damage, 0=no damage
Method: A formulation containing 50 g/L of the test chemical was prepared by dissolving the active ingredient in a mixture of organic solvents and emulsifier, details of which are provided in the table. This formulation was then mixed with a small, variable amount of acetone to aid dissolution, before addition of a 0.2% v/v aqueous solution of an adjuvant, as the aqueous diluent, to form an aqueous spray solution which contains a predetermined concentration of the active ingredient.
This aqueous spray solution was then sprayed onto plants including maize and wheat that had been seed treated with a herbicide safener, after one day's cultivation (for pre-emergence) or after about 12 days' cultivation (for post-emergence). The plants were grown from seeds sown in standard soil, placed in a glasshouse under controlled conditions (at 24/18° C. or 20/16° C., day/night; 16 h light; 65% humidity). After spray application the plants were then grown in a glasshouse under the same conditions and watered twice daily. After 15 d for post-emergence and 20 DAA for pre-emergence the test was evaluated (100=total damage to plant; 0=no damage to plant).

## CN1CC(c2cc(C(F)(F)F)n(C)n2)C(C(=O)Nc2ccc(F)cc2F)C1=O (racemic) [Compound 6]
Rate 15, 20 DAA
  damage to plant, ALOMY: 0
  damage to plant, AVEFA: 0
  damage to plant, BEAVA: 0
  damage to plant, BROTE: 0
  damage to plant, BRSNN: 0
  damage to plant, CHEAL: 0
  damage to plant, GALAP: 0
  damage to plant, HORVW: 0
  damage to plant, KCHSC: 0
  damage to plant, LOLPE: 0
  damage to plant, POAAN: 0
  damage to plant, POLCO: 0
  damage to plant, SINAR: 0
  damage to plant, STEME: 0
  damage to plant, VERPE: 0
Rate 30, 20 DAA
  damage to plant, ALOMY: 0
  damage to plant, AVEFA: 0
  damage to plant, BEAVA: 0
  damage to plant, BROTE: 0
  damage to plant, BRSNN: 0
  damage to plant, CHEAL: 0
  damage to plant, GALAP: 0
  damage to plant, HORVW: 0
  damage to plant, KCHSC: 0
  damage to plant, LOLPE: 0
  damage to plant, POAAN: 0
  damage to plant, POLCO: 0
  damage to plant, SINAR: 0
  damage to plant, STEME: 0
  damage to plant, VERPE: 0
Rate 60, 20 DAA
  damage to plant, ALOMY: 0
  damage to plant, AVEFA: 0
  damage to plant, BEAVA: 0
  damage to plant, BROTE: 0
  damage to plant, BRSNN: 0
  damage to plant, CHEAL: 0
  damage to plant, GALAP: 0
  damage to plant, HORVW: 0
  damage to plant, KCHSC: 0
  damage to plant, LOLPE: 0
  damage to plant, POAAN: 0
  damage to plant, POLCO: 0
  damage to plant, SINAR: 0
  damage to plant, STEME: 0
  damage to plant, VERPE: 0
Rate 130, 20 DAA
  damage to plant, ALOMY: 0
  damage to plant, AVEFA: 0
  damage to plant, BEAVA: 0
  damage to plant, BROTE: 0
  damage to plant, BRSNN: 0
  damage to plant, CHEAL: 0
  damage to plant, GALAP: 0
  damage to plant, HORVW: 0
  damage to plant, KCHSC: 0
  damage to plant, LOLPE: 0
  damage to plant, POAAN: 10
  damage to plant, POLCO: 0
  damage to plant, SINAR: 0
  damage to plant, STEME: 0
  damage to plant, VERPE: 0
Rate 250, 20 DAA
  damage to plant, ALOMY: 0
  damage to plant, AVEFA: 0
  damage to plant, BEAVA: 0
  damage to plant, BROTE: 0
  damage to plant, BRSNN: 0
  damage to plant, CHEAL: 10
  damage to plant, GALAP: 10
  damage to plant, HORVW: 10
  damage to plant, KCHSC: 0
  damage to plant, LOLPE: 20
  damage to plant, POAAN: 20
  damage to plant, POLCO: 0
  damage to plant, SINAR: 0
  damage to plant, STEME: 10
  damage to plant, VERPE: 10
Rate 500, 20 DAA
  damage to plant, ALOMY: 40
  damage to plant, AVEFA: 20
  damage to plant, BEAVA: 0
  damage to plant, BROTE: 0
  damage to plant, BRSNN: 0
  damage to plant, CHEAL: 20
  damage to plant, GALAP: 20
  damage to plant, HORVW: 20
  damage to plant, KCHSC: 10
  damage to plant, LOLPE: 30
  damage to plant, POAAN: 70
  damage to plant, POLCO: 0
  damage to plant, SINAR: 10
  damage to plant, STEME: 10
  damage to plant, VERPE: 20
